Experimental data reported in patent US8772495B2, “5-lipoxygenase-activating protein inhibitor” (Panmira Pharmaceuticals, LLC, priority 2008, dated 2014).
Where “and” joins values, the source holds several entries; their conditions need not be identical. Equal values may be shown once. Read-outs that look alike come from different tables or passages of the source. Marks after values point to notes of the source that are not given here.

Experiments:
[1] = Plasma binding (equilibrium dialysis); assay type: in vitro ADME, Monkey (cynomologus); conditions: monkey plasma, read-out: % Bound (converted)
Experimental: (§1) Experiments were performed using equilibrium dialysis.

[2] = Oral administration of liquid formulations to rats; parameters: species or system male Spargue-Dawley rats; conditions: Sprague-Dawley, rat, in vivo, solutions of Table 19, male rats
[3] = test system: whole blood ionophore-stimulated leukotriene LTB4; experiment: Phase I study: ex vivo ionophore-stimulated LTB4; assay type: in vivo, human
Text: Study Design: Single center, double-blind, randomized, placebo-controlled, single ascending dose followed by multiple ascending dose study.
Sample Size: (1) Single Dose Phase: eight (8) subjects (6 active, 2 placebo) per dose level; up to 5 dose levels are planned (a total of 40 subjects if all 5 dose levels are completed); and (2) Multiple Dose Phase: eight (8) subjects (6 active, 2 placebo) per dose level; up to 4 dose levels are planned (a total of 32 subjects if all 4 dose levels are completed).
Formulations: Compound 2 was supplied as an oral powder for reconstitution. Placebo solution matched. […] The placebo differed only in the absence of the active.
The following dosing cohorts were used:
Routes of Administration: All doses were administered orally with approximately 100 mL of water rinse. Subjects were fasted for at least 8 hours prior to dosing and for 2 hours after dosing. For BID dosing in the Multiple Dose Phase, when applicable, subjects were fasted for at least 2 hours prior to the second daily dose.
Plasma concentrations of Compound 1 were determined using a validated LC/MS method. Whole blood ionophore-stimulated leukotriene LTB4 and urinary LTE4 production were assayed by ELISA and mass spectrometry, respectively.
Analysis of Samples: Concentrations of Compound 1 was determined in plasma samples collected from subjects. Similarly, concentrations of LTB4 in plasma and urinary LTE4 were determined in blood and urine samples collected.

CYP2C9 = CYP2C9 (Homo sapiens (Human), UniProt P11712); experiment: Cellular cytochrome P450 induction in cryopreserved human hepatocytes; conditions: tested at 10 μM, diclofenac substrate
CYP2C9, sequence (P11712 whole entry, looked up): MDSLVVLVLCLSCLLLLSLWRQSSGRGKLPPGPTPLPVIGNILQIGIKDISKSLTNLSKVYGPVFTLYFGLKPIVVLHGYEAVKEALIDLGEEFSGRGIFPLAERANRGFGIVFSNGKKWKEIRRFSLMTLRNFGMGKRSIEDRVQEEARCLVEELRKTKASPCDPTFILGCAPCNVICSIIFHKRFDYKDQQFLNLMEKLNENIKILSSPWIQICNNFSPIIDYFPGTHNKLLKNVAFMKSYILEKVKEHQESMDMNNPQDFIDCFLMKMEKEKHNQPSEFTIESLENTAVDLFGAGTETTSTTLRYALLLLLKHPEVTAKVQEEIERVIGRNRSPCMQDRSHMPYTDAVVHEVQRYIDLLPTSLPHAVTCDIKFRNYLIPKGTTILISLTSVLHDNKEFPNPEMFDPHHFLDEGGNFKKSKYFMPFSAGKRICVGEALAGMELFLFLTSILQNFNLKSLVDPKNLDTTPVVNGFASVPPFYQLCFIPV

human FLAP = human FLAP (Homo sapiens (Human), UniProt P20292); experiment: FLAP binding assay (membrane radioligand binding); conditions: read-out: IC50, inhibition of FLAP radioligand binding; individual tests 1-8
human FLAP, sequence (P20292 whole entry): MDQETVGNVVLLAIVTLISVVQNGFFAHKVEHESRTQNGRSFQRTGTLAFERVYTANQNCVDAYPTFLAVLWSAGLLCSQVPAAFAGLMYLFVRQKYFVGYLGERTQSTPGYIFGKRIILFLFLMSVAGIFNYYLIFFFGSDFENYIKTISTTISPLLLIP

[4] = in vivo, po, 250 mg/kg/day
CYP3A4 = CYP3A4 (Homo sapiens (Human), UniProt P08684); experiment: Cellular cytochrome P450 induction in cryopreserved human hepatocytes; conditions: tested at 10 μM, midazolam substrate
CYP3A4, sequence (P08684 whole entry, looked up): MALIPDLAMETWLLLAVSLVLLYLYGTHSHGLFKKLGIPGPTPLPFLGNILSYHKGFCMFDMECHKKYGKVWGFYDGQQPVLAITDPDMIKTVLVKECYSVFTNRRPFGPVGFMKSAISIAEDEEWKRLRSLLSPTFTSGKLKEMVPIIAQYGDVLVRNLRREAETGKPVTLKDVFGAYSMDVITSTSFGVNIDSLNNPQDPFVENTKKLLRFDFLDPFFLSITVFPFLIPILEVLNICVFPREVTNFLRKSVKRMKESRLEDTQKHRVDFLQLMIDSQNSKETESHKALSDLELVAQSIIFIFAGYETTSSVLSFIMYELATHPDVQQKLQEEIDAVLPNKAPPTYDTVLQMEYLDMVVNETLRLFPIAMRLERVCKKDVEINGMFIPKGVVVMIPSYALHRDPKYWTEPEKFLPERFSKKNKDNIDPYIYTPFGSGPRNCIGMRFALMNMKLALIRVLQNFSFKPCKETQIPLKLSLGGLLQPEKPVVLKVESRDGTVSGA

CYP2D6 = CYP2D6 (Homo sapiens (Human), UniProt P10635); experiment: Extracellular cytochrome P450 inhibition (microsomes); assay type: in vitro ADME; conditions: concentrations up to and exceeding 40 μM
CYP2D6, sequence (P10635 whole entry): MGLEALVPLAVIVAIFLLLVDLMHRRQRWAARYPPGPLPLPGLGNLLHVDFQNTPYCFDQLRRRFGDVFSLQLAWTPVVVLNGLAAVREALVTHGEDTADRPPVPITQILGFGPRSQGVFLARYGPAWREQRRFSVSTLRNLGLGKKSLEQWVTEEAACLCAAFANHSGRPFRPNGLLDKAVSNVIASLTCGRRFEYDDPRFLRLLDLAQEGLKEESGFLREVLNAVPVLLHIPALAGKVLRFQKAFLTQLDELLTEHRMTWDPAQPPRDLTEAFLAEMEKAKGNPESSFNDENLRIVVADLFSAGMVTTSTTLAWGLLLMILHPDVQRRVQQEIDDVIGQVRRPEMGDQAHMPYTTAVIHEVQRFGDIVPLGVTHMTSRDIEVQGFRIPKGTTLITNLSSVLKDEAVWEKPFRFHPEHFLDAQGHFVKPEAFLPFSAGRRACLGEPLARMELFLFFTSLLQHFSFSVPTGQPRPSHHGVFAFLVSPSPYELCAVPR

LTB4 in Rat Whole Blood = experiment: Rat whole blood LTB4 inhibition assay; assay type: cell-based; conditions: individual tests 1-5
[5] = Plasma binding (equilibrium dialysis); assay type: in vitro ADME; conditions: read-out: % Bound (converted)
Experimental: as §1

[6] = Liquid formulations for oral solutions/suspensions; assay type: physicochemical
Experimental: Values of pH reported were estimated based on pH indicating strips. […] Accordingly, provided in certain embodiments herein were formulations having a pH above about 9, above about 10 or of about 10. In certain embodiments, the formulation was buffered at a pH of about 10. All formulations prepared were sonicated for about 10 minutes.

Compound: CCOc1ccc(-c2ccc(Cn3c(CC(C)(C)C(=O)[O-])c(SC(C)(C)C)c4cc(OCc5ccc(C)cn5)ccc43)cc2)cn1.[Na+] [Compound 2, sodium 3-[3-(tert-butylsulfanyl)-1-[4-(6-ethoxy-pyridin-3-yl)benzyl]-5-(5-methyl-pyridin-2-yl-methoxy)-1H-indol-2-yl]-2,2-dimethylpropionate]
- fraction unbound at 10 μM [1]: 0.003
- Tmax [2]: ≤ 2 h
- tE>50% (time above 50% LTB4 inhibition) ([3]; multiple dose 10 mg, Day 1): 17.5 h
- tE>90% (time above 90% LTB4 inhibition) ([3]; multiple dose 10 mg, Day 1): 0.0 h
- tE>50% (time above 50% LTB4 inhibition) ([3]; multiple dose 10 mg, Day 11): 27.4 h
- tE>90% (time above 90% LTB4 inhibition) ([3]; multiple dose 10 mg, Day 11): 0.0 h
- tE>50% (time above 50% LTB4 inhibition) ([3]; multiple dose 50 mg, Day 1): >23.3 h
- tE>90% (time above 90% LTB4 inhibition) ([3]; multiple dose 50 mg, Day 1): 0.0 h
- tE>50% (time above 50% LTB4 inhibition) ([3]; multiple dose 50 mg, Day 11): 42.4 h
- tE>90% (time above 90% LTB4 inhibition) ([3]; multiple dose 50 mg, Day 11): 10.0 h
- tE>50% (time above 50% LTB4 inhibition) ([3]; multiple dose 150 mg, Day 1): >23.4 h
- tE>90% (time above 90% LTB4 inhibition) ([3]; multiple dose 150 mg, Day 1): 15.1 h
- tE>50% (time above 50% LTB4 inhibition) ([3]; multiple dose 150 mg, Day 11): >72.0 h
- tE>90% (time above 90% LTB4 inhibition) ([3]; multiple dose 150 mg, Day 11): 52.4 h
- tE>50% (time above 50% LTB4 inhibition) ([3]; multiple dose 450 mg, Day 1): >23.7 h
- tE>90% (time above 90% LTB4 inhibition) ([3]; multiple dose 450 mg, Day 1): 17.4 h
- tE>50% (time above 50% LTB4 inhibition) ([3]; multiple dose 450 mg, Day 11): >72.0 h
- tE>90% (time above 90% LTB4 inhibition) ([3]; multiple dose 450 mg, Day 11): 50.4 h
- LTB4 level at t = 24 hrs. ([3]; single dose 50 mg): 37 ± 4.7 % of baseline
- tE>50% (time above 50% LTB4 inhibition) ([3]; single dose 50 mg, Day 1): 32.2 h
- tE>90% (time above 90% LTB4 inhibition) ([3]; single dose 50 mg, Day 1): 0.0 h
- LTB4 level at t = 24 hrs. ([3]; single dose 150 mg): 24 ± 4.4 % of baseline
- tE>50% (time above 50% LTB4 inhibition) ([3]; single dose 150 mg, Day 1): 41.9 h
- tE>90% (time above 90% LTB4 inhibition) ([3]; single dose 150 mg, Day 1): 14.2 h
- LTB4 level at t = 24 hrs. ([3]; single dose 300 mg): 23 ± 8.3 % of baseline
- tE>90% (time above 90% LTB4 inhibition) ([3]; single dose 300 mg, Day 1): 16.1 h
- tE>50% (time above 50% LTB4 inhibition) ([3]; single dose 300 mg, Day 1, estimated): 30^# h
- LTB4 level at t = 24 hrs. ([3]; single dose 600 mg): 1.6 ± 0.98 % of baseline
- tE>50% (time above 50% LTB4 inhibition) ([3]; single dose 600 mg, Day 1): >71.7 h
- tE>90% (time above 90% LTB4 inhibition) ([3]; single dose 600 mg, Day 1): 67.2 h
- LTB4 level at t = 24 hrs. ([3]; single dose 1000 mg): 1.9 ± 0.41 % of baseline
- tE>50% (time above 50% LTB4 inhibition) ([3]; single dose 1000 mg, Day 1): >71.7 h
- tE>90% (time above 90% LTB4 inhibition) ([3]; single dose 1000 mg, Day 1): 42.6 h
- CYP2C9 induction (CYP2C9): No apparent induction
- IC50 (human FLAP): 2.8 nM and 2.2 nM
- Liver weight ([4]; female, CD-1, mouse, 4 days): 1.2 ± 0.1
- Liver weight (% body weight) ([4]; female, CD-1, mouse, 4 days): 4.4 % body weight
- liver weight change as compared to vehicle control ([4]; female, CD-1, mouse, 4 days): 5%
- necropsy findings ([4]; mouse): no gross abnormalities
- CYP3A4 induction (CYP3A4): No apparent induction
- apparent inhibition (CYP2D6): No apparent inhibition
- IC50 (LTB4 in Rat Whole Blood): 302 nM and 160 nM and 380 nM and 212 nM and 141 nM
- fraction unbound at 10 μM ([5]; human plasma): 0.005
- fraction unbound at 10 μM ([5]; mixed breeds, dog plasma): 0.003
- fraction unbound at 10 μM ([5]; mixed breeds, rat plasma): 0.002
- Results (appearance of formulation) ([6]; 0.010 M sodium carbonate buffer, 1% v/v Lutrol and 0.05% splenda, pH 10, ~10 mg/mL): Clear solution
- Results (appearance of formulation) ([6]; 0.010 M sodium carbonate buffer, 2% v/v ethanol and 0.05% splenda, pH 10, 10 mg/mL): Clear solution
- Results (appearance of formulation) ([6]; 0.010 M sodium carbonate buffer, 5% v/v Ethanol and 0.05% splenda, pH 10, ~10 mg/mL): Some undissolved solid
- Results (appearance of formulation) ([6]; 0.010 M sodium carbonate buffer, 5% v/v Simple syrup, pH 10, 10 mg/mL): Some undissolved solid
- Results (appearance of formulation) ([6]; 0.010 M sodium carbonate buffer, pH 10, 10 mg/mL): Clear solution
- Results (appearance of formulation) ([6]; 0.5% Methylcellulose, 3.33 mg/mL): Suspension
